Where a name gives a salt, the structure may show the parent alone. Read-outs that look alike come from different tables or passages of the source.
What was measured:
Format in all cases: cell-based
[1] = test system: Aspergillus niger (A. niger—ATCC 16404); experiment: Synergy test, microtiter plate high resolution MIC assay, mold in PDB medium; set-up: key to SI (synergy index): SI = Qa/QA + Qb/QB; >1 antagonism, lower SI = greater synergy; Qb (Second Component B) / Qa (First Component A): unit: ppm; conditions: for MIC: Aspergillus niger
Protocol: (§1) When the sum of Qa/QA and Qb/QB is greater than one, antagonism is indicated. […] The lower the SI, the greater the synergy shown by that particular mixture. The minimum inhibitory concentration (MIC) of a microbicide is the lowest concentration tested under a specific set of conditions that prevents the growth of added microorganisms.
(§2) Synergy tests were conducted using standard microtiter plate assays with media designed for optimal growth of the test microorganism. Minimal salt medium supplemented with 0.2% glucose and 0.1% yeast extract (M9GY medium) was used for testing bacteria; Potato Dextrose Broth (PDB medium) was used for testing yeast and mold. In this method, a wide range of combinations of microbicides and other personal care raw materials was tested by conducting high resolution MIC assays in the presence of various concentrations of BBIT or MBIT. High resolution MICs were determined by adding varying amounts of microbicide to one column of a microtitre plate and doing subsequent […] dilutions using an automated liquid handling system to obtain a series of endpoints ranging from 2 ppm to 10,000 ppm active ingredient.
(§3) The bacteria were used at a concentration of about 5 ×10^6 bacteria per mL and the yeast and mold at 5×10^5 fungi per mL. These microorganisms are representative of natural contaminants in many consumer and industrial applications. […] (yeast and mold) or 30° C. (bacteria).
(§4) In each test, First Component (A) was BBIT and the Second Component (B) was the other commercial microbicide.
(§5) In each test, First Component (A) was MBIT and the Second Component (B) was the other commercial microbicide.

[2] = test system: Escherichia coli (E. coli—ATCC #8739); experiment: Synergy test, microtiter plate high resolution MIC assay, bacterium in M9GY medium; set-up: key to SI (synergy index): SI = Qa/QA + Qb/QB; >1 antagonism, lower SI = greater synergy; Qa (First Component A) / Qb (Second Component B): unit: ppm; conditions: for MIC: Escherichia coli
Protocol: as §1, §2, §3, §4, §5

[3] = test system: Candida albicans (C. albicans—ATCC 10231); experiment: Synergy test, microtiter plate high resolution MIC assay, yeast in PDB medium; set-up: key to SI (synergy index): SI = Qa/QA + Qb/QB; >1 antagonism, lower SI = greater synergy; Qb (Second Component B) / Qa (First Component A): unit: ppm; conditions: for MIC: Candida albicans
Protocol: as §1, §2, §3, §4, §5

[4] = A=MBIT, B=2-bromo-2-nitro-propane-1,3-diol (BNPD), A. niger 16404 - PDB, 4 days
[5] = A=MBIT, B=2-bromo-2-nitro-propane-1,3-diol (BNPD), E. coli 8739 - M9GY, 24 hours
[6] = A=MBIT, B=2-bromo-2-nitro-propane-1,3-diol (BNPD), C. albicans 10231 - PDB, 24 hours
[7] = ATCC10231, C. albicans 10231, PDB, 48 hours, 25° C., read-out: MIC of the component acting alone (QA / QB)
[8] = A. niger 16404, PDB, 7 days, 25° C.
[9] = A=MBIT, B=Benzisothiazolinone (BIT), A. niger 16404 - PDB, 7 days
[10] = A=MBIT, B=Benzisothiazolinone (BIT), E. coli 8739 - M9GY, 24 hours
[11] = A=MBIT, B=Benzisothiazolinone (BIT), C. albicans 10231 - PDB, 48 hours
[12] = A=MBIT, B=Benzyl alcohol, A. niger 16404 - PDB, 4 days
[13] = A=MBIT, B=Benzyl alcohol, E. coli 8739 - M9GY, 24 hours
[14] = A=MBIT, B=Benzyl alcohol, C. albicans 10231 - PDB, 48 hours
[15] = A=MBIT, B=Caprylyl glycol, A. niger 16404 - PDB, 4 days
[16] = A=MBIT, B=Caprylyl glycol, E. coli 8739 - M9GY, 24 hours
[17] = A=MBIT, B=Caprylyl glycol, C. albicans 10231 - PDB, 24 hours
[18] = A=MBIT, B=DMDM Hydantoin (DMDMH), A. niger 16404 - PDB, 3 days
[19] = A=MBIT, B=DMDM Hydantoin (DMDMH), E. coli 8739 - M9GY, 24 hours
[20] = A=MBIT, B=DMDM Hydantoin (DMDMH), C. albicans 10231 - PDB, 24 hours
[21] = A=MBIT, B=dithio-2,2′-bis(N-methylbenzamide) (DTBMA), A. niger 16404 - PDB, 3 days
[22] = A=MBIT, B=dithio-2,2′-bis(N-methylbenzamide) (DTBMA), E. coli 8739 - M9GY, 24 hours
[23] = A=MBIT, B=dithio-2,2′-bis(N-methylbenzamide) (DTBMA), C. albicans 10231 - PDB, 24 hours
[24] = C. albicans 10231, PDB, 24 hours

## O=[N+]([O-])C(Br)(CO)CO [BNPD, 2-bromo-2-nitro-propane-1,3-diol]
[1]; [4]
  Qb (Second Component B): 2000
  SI (synergy index): 1.00
[1]; ATCC16404, 168 h, A. niger 16404, PDB, 7 days, 25° C., read-out: MIC of the component acting alone (QA / QB)
  MIC: 2000 µg/mL
[2]; [5]
  Qb (Second Component B): 8
  SI (synergy index): 1.00
[2]; ATCC8739, E. coli 8739, M9GY, 48 hours, 30° C., read-out: MIC of the component acting alone (QA / QB)
  MIC: 10 µg/mL
[3]; [6]
  Qb (Second Component B): 1000
  SI (synergy index): 1.00
[3]; [7]
  MIC: 2000 µg/mL

## CC(C)(C)CC(C)(C)c1ccc(OCCOCC[N+](C)(C)Cc2ccccc2)cc1 [Benzethonium chloride]
[1]; A=MBIT, B=Benzethonium chloride (Hyamine 1622), A. niger 16404 - PDB, 4 days
  Qb (Second Component B): 10
[2]; A=MBIT, B=Benzethonium chloride (Hyamine 1622), E. coli 8739 - M9GY, 24 hours
  Qb (Second Component B): 20
[3]; A=MBIT, B=Benzethonium chloride (Hyamine 1622), C. albicans 10231 - PDB, 24 hours
  Qb (Second Component B): 4

## O=c1[nH]sc2ccccc12 [Benzisothiazolinone, 1,2-benzisothiazolin-3-one]
[1]; [8]
  MIC of the component acting alone (QA / QB): 100 ppm
[1]; [9]
  Qb (Second Component B): 300
  SI (synergy index): 1.00
[2]; [10]
  Qb (Second Component B): 20
  SI (synergy index): 1.00
[2]; E. coli 8739, M9GY, 72 hours, 30° C.
  MIC of the component acting alone (QA / QB): 8 ppm
[3]; [11]
  Qb (Second Component B): 30
  SI (synergy index): 1.00
[3]; C. albicans 10231, PDB, 48 hours, 25° C.
  MIC of the component acting alone (QA / QB): 30 ppm

## OCc1ccccc1 [Benzyl alcohol]
[1]; [12]
  Qb (Second Component B): 6000
  SI (synergy index): 1.00
[1]; ATCC16404, 72 h, A. niger 16404, PDB, 3 days, 25° C., read-out: MIC of the component acting alone (QA / QB)
  MIC: 5000 µg/mL
[2]; [13]
  Qb (Second Component B): 5000
  SI (synergy index): 1.00
[2]; ATCC8739, E. coli 8739, M9GY, 24 hours, 30° C., read-out: MIC of the component acting alone (QA / QB)
  MIC: 2000 µg/mL
[3]; [14]
  Qb (Second Component B): 4000
  SI (synergy index): 1.00
[3]; [7]
  MIC: 3000 µg/mL

## OCCCCO [Butylene glycol]
[1]
  Qb (Second Component B): 10000
  SI (synergy index): 1.00
[1]; ATCC16404, 72 h, read-out: MIC of the component acting alone (QA / QB)
  MIC: 10000 µg/mL
[2]
  Qb (Second Component B): 20000
  SI (synergy index): 1.00
[2]; ATCC8739, 48 h, read-out: MIC of the component acting alone (QA / QB)
  MIC: 20000 µg/mL
[3]
  Qb (Second Component B): 20000
  SI (synergy index): 1.00
[3]; ATCC10231, 24 h, read-out: MIC of the component acting alone (QA / QB)
  MIC: 20000 µg/mL

## CCCCCCC(O)CO (centres unmarked) [Caprylyl glycol]
[1]; [8]
  MIC of the component acting alone (QA / QB): 3000 ppm
[1]; [15]
  Qb (Second Component B): 1000
  SI (synergy index): 1.00
[2]; [16]
  Qb (Second Component B): 2000
  SI (synergy index): 1.00
[2]; E. coli 8739, M9GY, 24 hours, 30° C.
  MIC of the component acting alone (QA / QB): 2000 ppm
[3]; [17]
  Qb (Second Component B): 4000
  SI (synergy index): 1.00
[3]; C. albicans 10231, PDB, 24 hours, 25° C.
  MIC of the component acting alone (QA / QB): 3000 ppm

## CC1(C)C(=O)N(CO)C(=O)N1CO [DMDM Hydantoin, 1,3-dimethylol-5,5-dimethylhydantoin]
[1]; A. niger 16404 - PDB, 7 days, BBIT + DMDMH
  SI: 1.00
[1]; A. niger 16404 - PDB, 7 days, DMDMH alone (Qa 0) or in mixture with BBIT
  Qb (Second Component B = DMDMH): 1000
[1]; [18]
  Qb (Second Component B): 1000
  SI (synergy index): 1.00
[2]; [19]
  Qb (Second Component B): 50
  SI (synergy index): 1.00
[2]; E. coli 8739 - M9GY, 72 hours, BBIT + DMDMH
  SI: 1.00
[2]; E. coli 8739 - M9GY, 72 hours, DMDMH alone (Qa 0) or in mixture with BBIT
  Qb (Second Component B = DMDMH): 200
[3]; [20]
  Qb (Second Component B): 3000
  SI (synergy index): 1.00
[3]; C. albicans 10231 - PDB, 24 hours, BBIT + DMDMH
  SI: 1.00
[3]; C. albicans 10231 - PDB, 24 hours, DMDMH alone (Qa 0) or in mixture with BBIT
  Qb (Second Component B = DMDMH): 3000

## CNC(=O)c1ccccc1SSc1ccccc1C(=O)NC [DTBMA, dithio-2,2′-bis(N-methylbenzamide)]
[1]; A. niger 16404 - PDB, 7 days, BBIT + DTBMA
  SI: 1.00
[1]; A. niger 16404 - PDB, 7 days, DTBMA alone (Qa 0) or in mixture with BBIT
  Qb (Second Component B = DTBMA): 1000
[1]; [21]
  Qb (Second Component B): 800
  SI (synergy index): 1.00
[2]; [22]
  Qb (Second Component B): 80
  SI (synergy index): 1.00
[2]; E. coli 8739 - M9GY, 48 hours, BBIT + DTBMA
  SI: 1.00
[2]; E. coli 8739 - M9GY, 48 hours, DTBMA alone (Qa 0) or in mixture with BBIT
  Qb (Second Component B = DTBMA): 60
[3]; [23]
  Qb (Second Component B): 2000
  SI (synergy index): 1.00
[3]; C. albicans 10231 - PDB, 24 hours, BBIT + DTBMA
  SI: 1.00
[3]; C. albicans 10231 - PDB, 24 hours, DTBMA alone (Qa 0) or in mixture with BBIT
  Qb (Second Component B = DTBMA): 2000

## CC(=O)C1C(=O)C=C(C)OC1=O (centres unmarked) [Dehydroacetic acid, sodium salt]
[1]; A. niger 16404, PDB, 7 days
  SI (synergy index): 1.00
[1]; ATCC16404, 168 h, A. niger 16404, PDB, 7 days, alone where Qa = 0, otherwise in the mixture, read-out: Qb (concentration of second component producing the end point, MIC)
  MIC: 200 µg/mL
[2]; E. coli 8739, M9GY, 24 hours
  SI (synergy index): 1.00
[2]; ATCC8739, E. coli 8739, M9GY, 24 hours, alone where Qa = 0, otherwise in the mixture, read-out: Qb (concentration of second component producing the end point, MIC)
  MIC: 20000 µg/mL
[3]; [24]
  SI (synergy index): 1.00
[3]; ATCC10231, C. albicans 10231, PDB, 24 hours, alone where Qa = 0, otherwise in the mixture, read-out: Qb (concentration of second component producing the end point, MIC)
  MIC: 40 µg/mL

## O=C(O)CN(CCN(CC(=O)O)CC(=O)O)CC(=O)O [EDTA, Ethylenediamine tetraacetic acid]
[1]
  Qb (Second Component B = EDTA): 1600
[1]; A. niger 16404 - PDB, 7 days, BBIT + EDTA
  SI: 1.00
[2]
  Qb (Second Component B = EDTA): 40000
[2]; E. coli 8739 - M9GY, 72 hours, BBIT + EDTA
  SI: 1.00
[3]
  Qb (Second Component B = EDTA): 600
[3]; C. albicans 10231 - PDB, 24 hours, BBIT + EDTA
  SI: 1.00

## N=C(N)c1ccc(OCCCCCCOc2ccc(C(=N)N)cc2)cc1.O=S(=O)(O)CCO.O=S(=O)(O)CCO [Hexamidine diisethionate]
[2]; E. coli 8739, M9GY, 24 hours
  SI (synergy index): 1.00
[2]; E. coli 8739, M9GY, 24 hours, alone where Qa = 0, otherwise in the mixture
  Qb (concentration of second component producing the end point, MIC): 8 ppm
[2]; E. coli 8739 - M9GY, 48 hours, BBIT + hexamidine diisethionate
  SI: 1.00
[2]; E. coli 8739 - M9GY, 48 hours, hexamidine diisethionate alone (Qa 0) or in mixture with BBIT
  Qb (Second Component B = Hexamidine diisethionate): 100
[3]; [24]
  SI (synergy index): 1.00
[3]; C. albicans 10231, PDB, 24 hours, alone where Qa = 0, otherwise in the mixture
  Qb (concentration of second component producing the end point, MIC): 10 ppm
[3]; C. albicans 10231 - PDB, 24 hours, BBIT + hexamidine diisethionate
  SI: 1.00
[3]; C. albicans 10231 - PDB, 24 hours, hexamidine diisethionate alone (Qa 0) or in mixture with BBIT
  Qb (Second Component B = Hexamidine diisethionate): 10
